According to US5885834A, “Antisense oligodeoxynucleotide against phosphodiesterase” (priority 1997, dated 1999):
Entries after “also recorded” stand apart in the source; their conditions may differ.

Legend:
Assay type in all cases: cell-based, human
[1] = test system: isolated, quiescent HPBL; assay: TUNEL assay of apoptosis, flow cytometry, quiescent HPBL; settings: isolated, quiescent HPBL in culture, ODN added
Description: (§1) Nevertheless, the effects of AS ODNs on HPBL can still be tested by quantifying and comparing the percentage of cells undergoing apoptosis in the presence and absence of the AS ODN. Apoptosis detected by examining endonuclease-digested DNA, commonly referred to as the DNA laddering technique, has been employed and the results therefrom are set forth in FIG. 5. However, we prefer to use a TUNEL assay, an acronym for terminal deoxynucleotidyl transferase (TdT)-mediated dUTP nick end labeling, which more readily allows quantitation of the percentage of cells undergoing apoptosis. The principle of the TUNEL assay is that endonuclease digestion during apoptosis results in the formation of 3'-OH ends in the digested DNA. The digested DNA in the apoptotic cells can then be labeled with fluorescein by catalytically incorporating fluorescein-12-dUTP at the 3'-OH ends using the TdT enzyme. Fluorescence can then be quantitated by flow cytometry, using a fluorescence activated cell sorter (FACS), which would give a measure of the number of cells undergoing apoptosis. An example of the appearance of a population of fluorescein labeled apoptotic cells, as evidenced by flow cytometry, following TUNEL assay labeling of the cells, is shown in FIGS. 6A-C. Cells were then cultured for 3 days with 10 μg/ml PHA-P (Sigma), in the absence of any ODN (FIG. 6A), in the presence of 30 μM NS ODN (FIG. 6B), or in the presence of 30 μM AS ODN (FIG. 6C). Cells were then collected by centrifugation and fluorescein labeled by the TUNEL assay using the Promega Apoptosis Detection System. Flow cytometry was performed on a Beckton Dickinson FACScan by the FACS facility.
The procedure for analyzing apoptosis by the TUNEL method uses either an In Situ Cell Death Kit, Fluorescein from Boehringer Mannheim or an Apoptosis Detection System, Fluorescein from Promega and follows the protocols of the manufacturers. The data in FIGS. 6 and 7 was obtained using the manufacturer's protocol for the Apoptosis Detection System, Fluorescein from Promega. […]

[2] = test system: PHA-stimulated HPBL; assay: TUNEL assay of apoptosis, flow cytometry, PHA-stimulated HPBL; settings: 10 μg/ml PHA-P; 30 μM ODN; 3 days
Description: as §1, with “Cells were then cultured for 3 days with 10 μg/ml PHA-P (Sigma), in the absence of any ODN (FIG. 6A), in the presence of 30 μM NS ODN (FIG. 6B), or in the presence of 30 μM AS ODN (FIG. 6C). Cells were then collected by centrifugation and fluorescein labeled by the TUNEL assay using the Promega Apoptosis Detection System. Flow cytometry was performed on a Beckton Dickinson FACScan by the FACS facility.” left out

[3] = test system: β-actin mRNA in RPMI 8392 cells; assay: Quantitative RT-PCR of β-actin mRNA (control gene) after ODN treatment; settings: 10 or 30 μM ODN, 1 and 2 days
Description: This is usually determined by looking at the reduction or disappearance of the protein product, either by selective measurement of an enzymatic activity of the protein, where applicable, or by immunoquantitation with specific antibodies by Western blot or ELISA techniques. Also, when PO or PS ODNs are used, which are capable of activating RNase H activity, it is expected that the mRNA of the targeted gene would be down regulated, most of the time, along with the protein product, and this can be readily tested by Northern blot analysis or PCR techniques. Using quantitative RT-PCR with primers specific for PDE1B1, we examined the RPMI 8392 cells for the presence of PDE1B1 mRNA. […] NS ODN, at these concentrations, had no effect on the expression of PDE1B1 mRNA. […]
HPBL were isolated from a normal human donor and placed in culture with (+PHA) or without (-PHA) phytohemagglutinin for 3 days. Quantitative RT-PCR was performed with 2 μg of HPBL RNA, using reagents and protocol from GIBCO/BRL. […]
Using quantitative RT-PCR, the effect of AS ODN and NS ODN on the level of mRNA for PDE1B1 in RPMI 8392 cells was examined. Quantitative RT-PCR was used to determine the relative amounts of β-actin and PDE1B1 mRNAs present in RPMI 8392 cells after 1 and 2 days in culture with 10 μM and 30 μM AS ODN (AS) and NS ODN (NS). […]

| Substance | Rate of formation of apoptotic HPBL cells (TUNEL) [1] | Apoptosis in PHA-stimulated HPBL (TUNEL) [2] | Levels of β-actin mRNA [3] |
| --- | --- | --- | --- |
| 5'-GGACAGCTCCATGCTCAG-3' (phosphorothioate, further chemistry not given here) [AS ODN, 18 nt phosphorothioate antisense oligodeoxynucleotide targeted against the translation initiation region of PDE1B1] | unchanged | show the appearance of a population of highly fluorescein labeled cells; also recorded: induced apoptosis | unaltered; also recorded: unchanged |
| 5'-TACGTGAGGCACCTACGC-3' (phosphorothioate, further chemistry not given here) [NS ODN, control phosphorothioate nonsense ODN, same base composition as the AS ODN in random, scrambled order] | no different from control | do not show the appearance of this population; also recorded: no effect | no effect; also recorded: unchanged |
